Laboratory results: patent US20230027361A1, “METTL3 MODULATORS” (priority 2019, published 2023)
Like-named read-outs stand apart in the source and are kept apart here.

Tests used:
[1] = target: METTL3/METTL14 (Homo sapiens, UniProt Q86U44); experiment: METTL3-14 Standard Enzyme Assay (METTL3 biochemical assay)
Summary of the method: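 Tritium transfer from ³H-SAM (100 nM) to biotinylated RNA (100 nM) captured on streptavidin flashplates and counted by scintillation. Enzyme complex (2.5 nM) with compound, 5 min preincubation, 30 min reaction at ambient temperature, HEPES pH 7.5 buffer, stopped by excess unlabeled SAM.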

[2] = target: PRMT5-MEP50 (Homo sapiens, UniProt O14744); experiment: PRMT5 Assay (PRMT5 biochemical assay)
Summary of the method: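 Radiometric methyltransferase read-out: after 60 min reaction, excess unlabelled SAM (15 μM) stops turnover and biotinylated H4 peptide (100 nM) carrying 3H-methyl from 250 nM 3H-SAM is captured on streptavidin flashplates (2 h, 25° C) for scintillation counting. Enzyme, 2.5 nM PRMT5-MEP50, was preincubated 5 min with compound in pH 8.0 Tris buffer with DTT and Tween.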

[3] = test system: MOLM-13 cells; experiment: MOLM-13 96 Hour Cell Proliferation Assay; type: cell-based
Protocol: MOLM-13 (DSMZ) cells were seeded at 600 cells per well in a volume of 44 μL in a Greiner Bio-One CELLSTAR™ 384 Well Polystyrene Cell Culture clear bottom microplate in RPMI 1640 media containing 10% fetal bovine serum using a Multidrop Combi (ThermoFisher Scientific). Cells were incubated overnight at 37° C. in a humidified tissue culture incubator. To prevent evaporation or to reduce edge effect, add 50 μL or more H2O to an empty plate, cover, and place on top of the cell plates. The Mosquito® HTS Liquid Handler was used to make a compound/media intermediate plate by aliquoting 1 μL of compound from the initial compound dilution plate (concentrations ranging from 10.0 mM to 38.0 nM in 100% DMSO) into Bio-One 384-well polypropylene conical bottom microplate containing 49 μL of media containing the appropriate serum (50-fold dilution, 2% DMSO, compound concentrations ranging from 200.0 μM and […]). The Apricot liquid handling system was used to transfer 6.2 μL compounds from the intermediate plate into the seeding plate containing 44 μL cells (8-fold dilution spanning concentrations 25.0 μM to […], 0.25% DMSO final), and placed in a humidified tissue culture incubator at 37° C. After 96 hours, 25 μL of Cell Titer-Glo reagent (Promega) was added to each well using an Integra liquid handling system. The plate was protected from light using TopSeal-A (Black) film over the entire plate, added White Bottom seal film on the bottom of the entire plate for a better reading on the Envision, and placed on an IKA plate shaker for at 300 rpm for 10 minutes at room temperature. The plate was read on an EnVision plate reader (Perkin Elmer) using the Ultra Sensitive Luminescence protocol. Data analysis was performed by normalizing the raw luminescence units to an average of the positive control values for staurosporine (100% cell death) and the negative control values for DMSO (0% cell death). An IC50 was calculated using a 4-parameter logistic nonlinear regression model in GraphPad Prism.

[4] = test system: MOLM-13 cells; experiment: MOLM-13 48 Hour Cell Proliferation Assay; type: cell-based
Protocol: MOLM-13 (DSMZ) cells were seeded at 1000 cells per well in a volume of 44 μL in a Falcon 384-well tissue culture treated clear bottom microplate in RPMI 1640 media containing 10% fetal bovine serum using a Multidrop Combi (ThermoFisher Scientific). Cells were incubated overnight at 37° C. in a humidified tissue culture incubator. The Mosquito® HTS Liquid Handler was used to make a compound/media intermediate plate by aliquoting 1 μL of compound from the initial compound dilution plate (concentrations ranging from 10.0 mM to 38.0 nM in 100% DMSO) into a V bottom 384-well screen matrix plate containing 49 μL of media containing the appropriate serum (50-fold dilution, 2% DMSO). The Apricot liquid handling system was used to transfer 6.2 μL compounds from the intermediate plate into the Falcon 384-well tissue culture plate containing 44 μL cells (10-point, 4-fold dilution spanning concentrations 25.0 μM to […], 0.25% DMSO final), and placed in a humidified tissue culture incubator at 37° C. After 48 hours, 25 μL of Cell Titer-Glo reagent (Promega) was added to each well using a Multidrop Combi. The plate was protected from light and placed on an IKA plate shaker for at 300 rpm for 10 minutes at room temperature. The plate was read on an EnVision plate reader (Perkin Elmer) using the Ultra Sensitive Luminescence protocol. Data analysis was performed by normalizing the raw luminescence units to an average of the positive control values for staurosporine (100% cell death) and the negative control values for DMSO (0% cell death). An IC50 was calculated using a 4-parameter logistic nonlinear regression model in GraphPad Prism.

[5] = target: METTL1/WDR4 (Homo sapiens, UniProt Q9UBP6); experiment: METTL1 Assay (METTL1 biochemical assay)
Summary of the method: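 Radiometric methyltransfer by METTL1/WDR4 (6.25 nM f.c., 5 min preincubation) at ambient temperature in HEPES pH 7.5, KCl, MgCl2, DTT; started with 25 nM 3′-biotinylated RNA and 60 nM 3H-SAM, run 20 min, quenched with 15 μM cold SAM. Product captured on streptavidin flashplates (2 h, 25° C), counted by scintillation.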

[6] = METTL3 biochemical assay, read-out: METTL3 IC50
[7] = PRMT5 biochemical assay, read-out: PRMT5 IC50
[8] = METTL1 biochemical assay, read-out: METTL1 IC50

Sequence of METTL1/WDR4 (Q9UBP6 whole entry, species assumed): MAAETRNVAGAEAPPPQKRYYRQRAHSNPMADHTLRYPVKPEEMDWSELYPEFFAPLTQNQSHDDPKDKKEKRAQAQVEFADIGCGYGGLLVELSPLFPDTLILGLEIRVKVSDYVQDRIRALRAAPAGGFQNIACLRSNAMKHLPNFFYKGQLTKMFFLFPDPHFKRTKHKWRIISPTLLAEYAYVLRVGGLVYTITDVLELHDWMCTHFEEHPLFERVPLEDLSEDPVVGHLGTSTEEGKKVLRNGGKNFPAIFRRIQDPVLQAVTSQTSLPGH
Sequence of METTL1/WDR4 (P57081 whole entry partner, species assumed): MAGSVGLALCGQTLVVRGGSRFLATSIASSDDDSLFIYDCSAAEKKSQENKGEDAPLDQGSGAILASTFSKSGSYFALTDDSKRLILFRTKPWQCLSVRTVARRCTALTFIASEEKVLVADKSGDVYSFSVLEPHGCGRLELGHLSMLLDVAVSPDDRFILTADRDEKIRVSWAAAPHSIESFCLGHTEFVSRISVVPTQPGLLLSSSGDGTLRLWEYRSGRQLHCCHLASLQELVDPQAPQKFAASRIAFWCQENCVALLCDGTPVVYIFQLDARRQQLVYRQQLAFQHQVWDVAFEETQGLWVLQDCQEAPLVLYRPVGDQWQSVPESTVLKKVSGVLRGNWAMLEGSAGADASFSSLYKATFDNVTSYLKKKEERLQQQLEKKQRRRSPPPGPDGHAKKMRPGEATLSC
Sequence of PRMT5-MEP50 (O14744 whole entry): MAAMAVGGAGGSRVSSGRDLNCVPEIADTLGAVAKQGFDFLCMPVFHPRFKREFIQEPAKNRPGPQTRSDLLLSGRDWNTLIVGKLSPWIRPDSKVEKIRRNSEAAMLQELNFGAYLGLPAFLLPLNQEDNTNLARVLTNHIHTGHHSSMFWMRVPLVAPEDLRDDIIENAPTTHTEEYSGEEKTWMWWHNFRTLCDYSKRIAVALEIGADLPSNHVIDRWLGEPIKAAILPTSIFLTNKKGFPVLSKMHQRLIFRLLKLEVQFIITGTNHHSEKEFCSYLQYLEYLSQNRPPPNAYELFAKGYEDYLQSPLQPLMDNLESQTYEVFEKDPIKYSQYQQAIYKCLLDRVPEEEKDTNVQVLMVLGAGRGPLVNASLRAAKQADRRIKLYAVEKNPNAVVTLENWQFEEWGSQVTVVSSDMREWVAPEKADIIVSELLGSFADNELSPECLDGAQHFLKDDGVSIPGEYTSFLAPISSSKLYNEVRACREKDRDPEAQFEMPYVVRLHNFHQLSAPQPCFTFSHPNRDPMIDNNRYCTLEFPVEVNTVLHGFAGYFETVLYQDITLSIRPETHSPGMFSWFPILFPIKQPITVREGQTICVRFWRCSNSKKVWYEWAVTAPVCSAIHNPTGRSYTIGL
Sequence of PRMT5-MEP50 (Q9BQA1 whole entry partner): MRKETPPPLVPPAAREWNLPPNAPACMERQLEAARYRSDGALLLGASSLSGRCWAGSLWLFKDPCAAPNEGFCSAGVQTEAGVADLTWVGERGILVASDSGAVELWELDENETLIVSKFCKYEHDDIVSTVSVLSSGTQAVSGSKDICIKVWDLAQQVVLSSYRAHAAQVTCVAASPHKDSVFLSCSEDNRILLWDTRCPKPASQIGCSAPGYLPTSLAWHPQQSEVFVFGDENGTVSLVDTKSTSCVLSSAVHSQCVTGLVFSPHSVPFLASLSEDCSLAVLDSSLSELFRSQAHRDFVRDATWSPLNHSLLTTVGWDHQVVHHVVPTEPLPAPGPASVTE
Sequence of METTL3/METTL14 (Q86U44 whole entry, species assumed): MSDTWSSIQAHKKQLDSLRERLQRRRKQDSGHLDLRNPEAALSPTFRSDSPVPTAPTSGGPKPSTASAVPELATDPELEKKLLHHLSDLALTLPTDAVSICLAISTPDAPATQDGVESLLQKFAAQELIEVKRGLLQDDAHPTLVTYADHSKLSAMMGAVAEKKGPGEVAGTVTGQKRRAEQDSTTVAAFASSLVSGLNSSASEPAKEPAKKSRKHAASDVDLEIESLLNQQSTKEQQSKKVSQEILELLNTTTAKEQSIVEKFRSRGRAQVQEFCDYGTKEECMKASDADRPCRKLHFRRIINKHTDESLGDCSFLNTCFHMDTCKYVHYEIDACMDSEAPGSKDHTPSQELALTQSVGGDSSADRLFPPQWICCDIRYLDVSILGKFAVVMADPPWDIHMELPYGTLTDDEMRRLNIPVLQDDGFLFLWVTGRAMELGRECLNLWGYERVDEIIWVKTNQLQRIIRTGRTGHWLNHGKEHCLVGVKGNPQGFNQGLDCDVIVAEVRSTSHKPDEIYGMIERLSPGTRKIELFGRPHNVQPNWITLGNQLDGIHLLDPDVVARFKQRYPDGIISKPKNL
Sequence of METTL3/METTL14 (Q9HCE5 whole entry partner, species assumed): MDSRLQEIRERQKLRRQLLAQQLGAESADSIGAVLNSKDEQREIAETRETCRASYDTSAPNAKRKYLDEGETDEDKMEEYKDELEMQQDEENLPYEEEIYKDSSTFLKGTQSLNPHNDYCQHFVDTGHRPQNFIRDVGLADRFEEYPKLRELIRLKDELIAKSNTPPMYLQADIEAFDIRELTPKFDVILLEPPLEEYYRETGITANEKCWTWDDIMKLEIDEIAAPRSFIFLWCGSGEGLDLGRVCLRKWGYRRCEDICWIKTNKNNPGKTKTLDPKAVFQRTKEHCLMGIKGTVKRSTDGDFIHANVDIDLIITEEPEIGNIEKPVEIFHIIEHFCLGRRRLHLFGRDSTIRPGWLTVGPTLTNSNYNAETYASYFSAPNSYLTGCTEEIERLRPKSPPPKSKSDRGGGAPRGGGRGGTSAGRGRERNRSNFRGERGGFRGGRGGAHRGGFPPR

SMILES | IC50 [1] | IC50 [2] | IC50 ([3]; Homo sapiens) | IC50 ([4]; Homo sapiens) | IC50 [1, 6] | IC50 [2, 7] | also measured
CN(CCO)c1ccc2ccc(OC[C@H]3O[C@@H](n4cc(-c5ccn(C)n5)c5c(N)ncnc54)[C@@H](F)[C@@H]3O)cc2n1 [I-162] | < 0.01 µM | > 1 µM | < 1 µM | 1 to 10 µM | – | – | –
Nc1ncnc2c1c(CO)cn2[C@@H]1O[C@H](COc2ccc3ccc(N4CCC4)nc3c2)[C@@H](O)[C@@H]1F [I-163] | – | – | – | 1 to 10 µM | < 0.01 µM | > 1 µM | IC50 ([3]; Homo sapiens, MOLM-13, 96 h): 1 to 10 µM
Nc1ncnc2c1ccn2[C@H]1C[C@H](O)[C@@H](COc2ccc3ccc(N4CCC4)nc3c2)O1 [I-165] | – | – | – | > 10 µM | < 0.01 µM | > 1 µM | IC50 ([3]; Homo sapiens, MOLM-13, 96 h): 1 to 10 µM
Nc1ncnc2c1c(-n1ccc(C(F)(F)F)n1)cn2[C@H]1C[C@H](O)[C@@H](COc2ccc3ccc(N4CCC4)nc3c2)O1 [I-178] | < 0.01 µM | > 1 µM | 1 to 10 µM | 1 to 10 µM | – | – | –
CNc1ccc2sc(CC[C@H]3O[C@@H](n4cc(-c5ccn(C)n5)c5c(N)ncnc54)[C@@H](F)[C@@H]3O)cc2n1 [I-190] | < 0.01 µM | 0.01 to 0.1 µM | < 1 µM | – | – | – | –
Cn1ccc(-c2cn([C@@H]3O[C@H](COc4ccc5cnc(N6CCC6)nc5c4)[C@@H](O)[C@@H]3F)c3ncnc(N)c23)n1 [I-199] | < 0.01 µM | > 1 µM | 1 to 10 µM | – | – | – | –
Cn1ccc(-c2cn([C@@H]3C[C@H](CCc4ccc5ccc(N6CCC6)nc5c4)[C@@H](O)[C@@H]3F)c3ncnc(N)c23)n1 [I-211] | < 0.01 µM | > 1 µM | < 1 µM | – | – | – | –
COCCN(C)C(=O)c1cn([C@@H]2O[C@H](COc3ccc4ccc(N5CCC5)nc4c3)[C@@H](O)[C@@H]2F)c2ncnc(N)c12 [I-217] | 0.01 to 0.1 µM | > 1 µM | > 10 µM | – | – | – | –
Nc1ncnc2c1c(-c1ncco1)cn2[C@@H]1O[C@H](COc2ccc3ccc(N4CCC4)nc3c2)[C@@H](O)[C@@H]1F [I-219] | < 0.01 µM | > 1 µM | < 1 µM | – | – | – | –
Nc1ncnc2c1c([C@H]1CCCO1)cn2[C@@H]1O[C@H](COc2ccc3ccc(N4CCC4)nc3c2)[C@@H](O)[C@@H]1F [I-225] | – | – | – | – | – | > 1 µM | IC50 [3]: 1 to 10 µM; IC50 [4]: 1 to 10 µM
C=CCc1cn([C@@H]2O[C@H](COc3ccc4ccc(NC)nc4c3)[C@@H](O)[C@H]2O)c2ncnc(N)c12 [I-226] | – | – | – | < 1 µM | < 0.01 µM | < 0.01 µM | IC50 [5]: > 1 µM
CNc1ccc2ccc(OC[C@H]3O[C@H](n4cc(C(O)C5CC5)c5c(N)ncnc54)[C@H](O)[C@@H]3O)cc2n1 (stereo partly drawn) [I-227] | – | – | – | > 10 µM | < 0.01 µM | < 0.01 µM | IC50 [5]: > 1 µM
CNc1ccc2ccc(OC[C@H]3O[C@@H](n4cc(-c5cccc(C)n5)c5c(N)ncnc54)[C@@H](F)[C@@H]3O)cc2n1 [I-229] | < 0.01 µM | 0.01 to 0.1 µM | – | 1 to 10 µM | – | – | IC50 [5, 8]: > 1 µM
CNc1ccc2ccc(OC[C@H]3O[C@@H](n4cc(F)c5c(N)ncnc54)[C@@H](F)[C@@H]3O)cc2n1 [I-230] | – | – | – | 1 to 10 µM | < 0.01 µM | 0.01 to 0.1 µM | IC50 [5]: > 1 µM
CNc1ccc2ccc(OC[C@H]3O[C@@H](n4cc(-c5ccc(C)cn5)c5c(N)ncnc54)[C@@H](F)[C@@H]3O)cc2n1 [I-231] | < 0.01 µM | 0.1 to 1 µM | – | < 1 µM | – | – | IC50 [5, 8]: > 1 µM
